Results from patent US20260062445A1, “PEPTIDES WITH CYTOKINE-RELEASING ACTIVITY AND METHODS FOR CHARACTERIZING CYTOKINE-RELEASING PROFILES OF PEPTIDES” (KOLIBER BIOSCIENCES INC., priority 2022, published 2026).

System: expanded naïve CD4+ T cells co-cultured with PBMCs
Test: Expanded CD4 positive T cell assay (cytokine release, ELISA)
Type: cell-based, human
Conditions: for response across donors (frequency of responding wells, IL-10 and IFN-γ): three different donors expressing HLA-DRB1*1101, FIGS. 7A-7B
Excerpt: To improve the robustness of the assay and decrease the well-to-well variation, a novel assay system was developed. In effect, by expanding the naïve CD4+ T cells, the number of antigen specific T cells can be increased per well with the goal of detecting a responding well with greater frequency. To expand the naïve CD4+ T cells, the cells are first isolated from PBMCs using negative selection with antibody coated magnetic beads. The naïve CD4+ T cells are then polyclonally expanded using anti-CD3 and anti-CD28 Dynabeads. An expansion of up to 20-fold was observed. The beads were then removed, and the cells were rested for 24 hours. The expanded CD4+ T cells were then co-cultured with PBMCs at a 4:1 ratio and stimulated with peptides twice every 3 days. IL-2 helper cytokine was included. Peptides were utilized at 40 μg/mL. After two peptide stimulations, IL-10 levels in the range of 20-50 picograms […]/mL were observed as compared to 5-10 pg/mL for negative controls (vehicle only) (see FIG. 3C).
PBMCs were isolated from healthy HLA typed donors of different ages, ethnicities, and genders. […] 100 million PBMC were thawed into media (Rosewell Park Memorial Institute (RPMI) 1640 medium, 10% fetal bovine serum (FBS) Heat Inactivated, 1% Penicillin-Streptomycin) and rested at 37° C., 5% CO2 overnight.
Naïve CD4+ T cells are isolated from rested PBMC using the BioLegend MojoSort™ Human CD4 T Cell Isolation Kit. Isolated T cells were counted and cultured at a density of 1×10^6 cells/mL of media with 30 units per milliliter (U/mL) of IL-2. T cells were activated and expanded using ThermoFisher Dynabeads™ Human T-Activator CD3/CD28. Beads were added at a 1:1 bead-to-cell ratio. T cells are incubated at 37° C., 5% CO2 for approximately 1 week, splitting in order to maintain the 1×10^6 cells/mL seeding density and with the addition of fresh media. T cells often saw a 20- to 30-fold expansion.
Expansion beads were magnetically removed from the T cell culture. Remaining T cells were cultured at 1×10^6 cells/mL in media and the IL-2 level was dropped to 10 units/milliliter (U/mL). T cells are rested 24 hours. Meanwhile, another vial of PBMC of the same donor was thawed and similarly rested overnight in media. 1 million expanded T cells and 0.25 million PBMC were cocultured in 1 mL of media containing 10 U/mL IL-2 in 24 well plates. Each well was stimulated with 40 μg of peptide with at least 6 well replicates for each peptide. Sterile water with 10% DMSO was used as a negative control. Plates were incubated at 37° C., 5% CO2 for 3 days. After 3 days, supernatants of each well were collected into Eppendorf tubes and frozen. Cells were resuspended in fresh media containing 10 U/mL IL-2. Cells were restimulated with 40 μg of peptide in the same format. Plates were incubated for another 3 days (see FIG. 2). Supernatants were collected after the second stimulation and cell culture was terminated.
IL-10 and IFN-γ cytokine concentrations were determined for samples. 96-well microwell plates were coated with capture antibody and incubated overnight at 4° C. Frozen supernatants were thawed and assayed using ELISA MAX™ Deluxe kits.
To quantify the number of responding wells for each peptide, a one sample t-test was utilized where signal from each well was compared against the distribution of negative wells from vehicle only controls. The negative distribution was normal (based on Shapiro Wilk test). […] As such, for each peptide, a fraction of responding wells was derived. The fraction of responding wells after the first and second peptide stimulations in the expanded CD4+ T cell assay are shown in FIGS. 5A-5D. Moreover, the fraction of responding wells was further subjected to the statistical test for proportions which takes into account the sample size.

For FAVPAKQAKKTLT [KBP82], the IFN-γ release (peptide 40 μg/mL, FIGS. 5A-5D) was “minimal levels”, the “specificity for IL-10 production vs IFN-γ” value (three different donors expressing HLA-DRB1*1101) was “high specificity” and the “response across donors (frequency of responding wells, IL-10 and IFN-γ)” value (from here on “response across donors”) was “respond across donors”.

With KLAKRLLLSMNQ [KBP63] the “response across donors” value was “respond across donors”.

For “Keyhole limpet haemocyanin [KLH, reference compound]”, the IFN-γ signal (upon double stimulation) was 150 pg/mL and the IFN-γ signal (upon single stimulation) was 80 pg/mL.

In the case of LALLAPKLLRRF [KBP73], the “response across donors” value is reported as “respond across donors”.
